Measured values reported in BigSolDB 2.1.

CC(=O)Nc1cccc(N)c1
solubility (mole fraction)
Conditions | 278.15 K | 283.15 K | 288.15 K | 293.15 K | 298.15 K | 303.15 K | 308.15 K | 313.15 K | 318.15 K | 323.15 K
in DMF | 0.029 | 0.043 | 0.061 | 0.088 | 0.124 | 0.166 | 0.22 | 0.285 | 0.358 | 0.44
in THF | 0.108 | 0.146 | 0.194 | 0.256 | 0.328 | 0.404 | 0.487 | 0.568 | 0.653 | 0.729
in acetone | 0.05 | 0.063 | 0.081 | 0.101 | 0.125 | 0.153 | 0.186 | 0.225 | 0.27 | 0.319
in acetonitrile | 0.0283 | 0.0322 | 0.0382 | 0.0453 | 0.0535 | 0.0644 | 0.0752 | 0.0908 | 0.108 | 0.128
in ethyl acetate | 0.033 | 0.038 | 0.043 | 0.049 | 0.055 | 0.063 | 0.074 | 0.085 | 0.099 | 0.114
in isopropanol | 0.021 | 0.031 | 0.048 | 0.064 | 0.084 | 0.108 | 0.138 | 0.174 | 0.218 | 0.266
in methanol | 0.049 | 0.074 | 0.105 | 0.148 | 0.207 | 0.274 | 0.351 | 0.44 | 0.53 | 0.613
in water | 0.025 | 0.039 | 0.06 | 0.091 | 0.133 | 0.19 | 0.262 | 0.347 | 0.439 | 0.541
